A short description of data set [1]: In vitro drug release from polymeric formulations. The format is physicochemical.
For data set [2], the system named is smooth muscle cells (A7r5 rat embryonic thoracic aorta). As to the kind of experiment: MTT proliferation/cytotoxicity assay, smooth muscle cells. The data set is classed as cell-based. The settings on record: A7R5, 48 hours exposure, read-out: inhibitory concentration that gave 50% effect on proliferation (IC50), smooth muscle cells. The method, then:
(§1) Proliferation was determined using the MTT proliferation/cytotoxicity assay.
(§2) On day one, 1500-2000 smooth muscle cells (A7r5 rat embryonic thoracic aorta) or synoviocytes (HIG.82 rabbit) were plated per well on a 96-well plate, leaving the first column free of cells (blank). The plate was placed back into the 37° C., CO2 incubator. The following day camptothecin was added at various concentrations. No drugs were added to the first column (blank) and the second column (untreated column) for control. The cells were exposed for 24, 48, and 72 hours. At the end of the exposure period, 50 μl of dimethylthiazol diphenyltetrazolium bromide salt (MTT) dissolved in media was added and allowed to incubate for 4 hours at 37° C. The medium was then aspirated and 200 μl of dimethyl sulfoxide was added. The plate was agitated for 30 minutes and the absorbance read at 562 nm. The optical density measurement was converted to number of cells using a standard plot of optical density with known number of cells and cell viability was expressed as % growth (this value is the % of the control cells).

For data set [3], the system named is synoviocytes (HIG.82 rabbit). As to the kind of experiment: MTT proliferation/cytotoxicity assay, synoviocytes. The format is cell-based. The settings on record: Oryctolagus cuniculus; 48 hours exposure; read-out: inhibitory concentration that gave 50% effect on proliferation (IC50), synoviocytes. The method, then: as §1, §2
In a further data set the test system is human neutrophils. As to the kind of experiment: Neutrophil chemiluminescence (neutrophil activation). The data set is classed as cell-based. The settings on record: Homo sapiens, Neutrophil. The protocol:
Freshly prepared human neutrophils were incubated with the compound followed by stimulation of the cells with either plasma opsonized CPPD crystals, the bacterial chemoattractant, fMLP or the phorbol ester, PMA. Stimulation (or activation) of the cells induced superoxide anion generation which could be measured by the emission of light (chemiluminescence). Inhibition of neutrophil function was then determined by inhibition of chemiluminescence. Hanks buffered salt solution (HBSS) pH 7.4 was used throughout the study. All chemicals were purchased from Sigma Chemical Co. (St. Louis, Mo.) unless otherwise stated. All procedures were performed at 37° C. unless otherwise stated. CPPD (triclinic) crystals were prepared and characterized as previously reported (Jackson J K et al., J Rheumatol, 24: 341-348, 1996). The size distribution of the crystals was approximately 33% less than […]. Opsonization of crystals was carried out using 50% heparinized plasma and concentrations of 50 mg of CPPD in 1 mL of 50% plasma. Crystals were incubated with diluted plasma for 30 min at 37° C., centrifuged at 1000×g, then washed in HBSS and recentrifuged. Neutrophils were prepared from freshly collected, human, citrated whole blood. Briefly, 400 mL of blood were mixed with 80 mL of 4% dextran T500 (Pharmacia LKB, Biotechnology AB Uppsala, Sweden) in HBSS and allowed to settle for 1 h. Plasma was collected continuously and 5 mL applied to 5 mL Ficoll Paque (Pharmacia) in 15 mL polypropylene tubes (Corning, N.Y.). Following centrifugation at 500×g for 30 min, the neutrophil pellets were washed free of erythrocytes by 20 s of hypotonic shock. Neutrophils were resuspended in HBSS, kept on ice and used for experiments within 3 h. Neutrophil viability and purity was always greater than 90%.
A stock solution of drug was diluted in DMSO to give various concentrations of drug. Equal volumes of these solutions were added to neutrophils at 5×10^6 cells per mL under mild vortexing to achieve final concentrations with a final DMSO concentration of 0.25%. This DMSO concentration found to have no effect on control cell responses. Cells were incubated for 15 minutes at 37° C. before addition to crystals, fMLP or PMA.
Chemiluminescence studies were performed at a cell concentration of 5×10^6 cells per mL in HBSS with CPPD (50 mg/mL). In all experiments 0.5 mL of cells were added to 25 mg of CPPD or 1 uM fMLP (and 0.5 uM cytochalasin B) or 0.5 uM PMA in 1.5 ml Eppendorf tubes. To the tubes were added 10 uL of luminol dissolved in 25% DMSO in HBSS to give a final concentration of 1 μM and the samples were mixed to initiate neutrophil activation. Chemiluminescence was monitored using an LKB Luminometer (Model 1250) at 37° C. with shaking immediately prior to measurements to resuspend the crystals. Control tubes contained cells, drug and luminol (crystals absent).

In data set [4] the test system is chorioallantoic membrane of the chick embryo. As to the kind of experiment: Angiogenesis in the chick chorioallantoic membrane (CAM assay). The format is in vivo. From the text:
Sheets of sterile waxed paper were placed onto the window that was created in the air space and were used to prevent contamination and dehydration of the egg contents. These sheets, measuring 4 cm×4 cm, were sterilized by spraying them with 70% ethanol and allowing them to dry in the laminar flow hood. […] Using 70% ethanol and Kimwipes, the entire eggshell was wiped down to help clean and sanitize the outside of the egg. Inside a laminar flow hood, the egg was held with the blunt side up and a hole was made in the blunt end of the egg by carefully cracking the shell with the end of forceps. The shell remnants were gently removed with forceps to form a hole in the blunt end. This circular hole was made as large as 2 to 3 cm in diameter without damaging the inner membrane. Once the hole was created in the shell, the inner shell membrane (which houses the egg contents) was gently torn and removed using the forceps, taking care not to damage the chorioallantoic membrane (CAM) (which houses the yolk and developing chick embryo). The hole was then covered with the sheet of sterilized parafilm wax paper by gently stretching the parafilm and then placing it around the hole. The egg was then placed in the egg rack in the incubator (37° C.) and positioned in such a way as to prevent rotation. After 6 days each egg was removed one by one from the incubator (blunt side up), and the parafilm covering the window was removed for direct access to the CAM, which originates from the hind gut of the embryo. The drug-loaded polymer was placed onto the growing capillary bed of the CAM. The egg contents were then resealed with the parafilm sheet and placed back into the 37° C. incubator. […] The values of the avascular scale describe the following: […]

Where [5] appears, read: ethylene vinyl acetate films, PBS pH 7.4, 37° C.
Setting [6] is: polycaprolactone paste, PBS, 37° C.
The mark [7] stands for this setting: 2.0% w/w in PCL pellet, 48 hours.
The mark [8] stands for this setting: summary over all concentrations tested in PCL or PCL-MePEG pellets.

From patent publication US8883856B2, “Compositions and methods for the treatment of inflammatory diseases using topoisomerase inhibitors” (priority 2000, dated 2014) come the findings set out here.

Regarding `COc1cccc2c1C(=O)c1c(O)c3c(c(O)c1C2=O)C[C@@](O)(C(=O)CO)C[C@@H]3O[C@H]1C[C@H](N)[C@H](O)[C@H](C)O1` [doxorubicin], the drug release profile result in data set [1] (setting [5]) and in data set [1] (setting [6]) was “initial burst of drug release followed by a slow sustained release” in each case. For the same compound, the IC50 in data set [2] is 0.6 µM; in data set [3] it was 0.1 µM. The compound further returned an inhibition at 10 µM with human neutrophils (10 uM) of 13%. Moreover, the “number of eggs (CAM's) with antiangiogenic activity Partial (score 1-2)” value in data set [4] (0.5% w/w in PCL pellet, 48 hours) stood at 5; in data set [4] (setting [7]), 20; in data set [4] (4.0% w/w in PCL pellet, 48 hours) it was 4; in data set [4] (5.0% w/w in PCL pellet, 48 hours), 3. For the same compound, the “number of eggs (CAM's) with antiangiogenic activity None (score 0)” value in data set [4] (setting [7]) is given as 1. Moreover, the results for the “inhibition of angiogenesis in the CAM, in words” value in data set [4] (5% (w/w to PCL)) and in data set [4] (setting [8]) were “partial to full inhibition of angiogenesis” and “partially inhibited angiogenesis in all but one CAM”, respectively.

`CC1=CC(=O)c2c(O)cccc2C1=O` [plumbagin]: the drug release profile entry in data set [1] (chitosan films, PBS pH 7.4, 37° C.) was “initial burst of drug release followed by a slow sustained release”; in data set [1] (setting [5]), “initial burst of drug release followed by a slow sustained release”; in data set [1] (poly(L-lactic acid) microspheres, PBS pH 7.4, 37° C.), “initial burst of drug release followed by a slow sustained release”; in data set [1] (polycaprolactone microspheres, PBS pH 7.4, 37° C.) it was “initial burst of drug release followed by a slow sustained release”; in data set [1] (setting [6]), “initial burst of drug release followed by a slow sustained release”; in data set [1] (triblock copolymer/MePEG paste, PBS pH 7.4 with n-octanol, 37° C.), “initial burst of drug release followed by a slow sustained release”. The IC50 in data set [2] is 2.6 µM; in data set [3], 3.6 µM; in the data set on human neutrophils (three agonists: CPPD crystals, fMLP, PMA, read-out: IC 50, inhibition of neutrophil chemiluminescence) it was less than 1 µg/mL. In addition, the “number of eggs (CAM's) with antiangiogenic activity Partial (score 1-2)” value in data set [4] (1.0% w/w in PCL pellet, 48 hours) is listed as “Necrosis”. In data set [4] (in vivo), the “generalized cytotoxicity in the CAM” value is “some evidence of necrosis in non-capillary cells and membrane thinning”. Besides, the “inhibition of angiogenesis in the CAM, in words” value in data set [4] (setting [8]) is recorded as “partial inhibition of angiogenesis in a number of CAM's”.
